Measured values: patent US9085599B2, “2′allene-substituted nucleoside derivatives” (priority 2011, dated 2015)
Read-outs that look alike come from different tables or passages of the source.

Tests used:
[1] = test system: HCV replicon RNA, genotype 1a (strain H77); experiment: HCV replicon assay qRT-PCR, genotype 1a (Huh-1a7 replicon cell line); type: cell-based; details: Hepatitis C virus, read-out: 1a EC50
Excerpt: (§1) HCV replicon cell lines (kindly provided by R. Bartenschlager) isolated from colonies as described by Lohman et al. (Lohman et al. (1999) Science 285: 110-113, expressly incorporated by reference in its entirety) and used for all experiments. One of the HCV replicon cell lines (strain Con1, genotype 1b) has the nucleic acid sequence set forth in EMBL Accession No.: AJ242651, the coding sequence of which is from nucleotides 1801 to 8406. Another replicon cell line (strain H77, genotype 1a) was constructed as described by Yi et. al. (Yi et. al. (2004) Journal of Virology 78(15):7904-15). […]
(§2) EC50 values of single agent compounds were determined by HCV RNA detection using quantitative RT-PCR, according to the manufacturer's instructions, with a TAQMAN® One-Step RT-PCR Master Mix Reagents Kit (Cat#AB 4309169, Applied Biosystems) on an ABI Model 7500 thermocycler. EC50 values of combinations are similarly determined by HCV RNA detection using quantitative RT-PCR. The TAQMAN primers to use for detecting and quantifying HCV RNA obtained from Integrated DNA Technologies. HCV RNA is normalized to GAPDH RNA levels in drug-treated cells, which is detected and quantified using the Human GAPDH Endogenous Control Mix (Applied Biosystems, AB 4310884E). […] Chemical agent cytotoxicity is evaluated using an MTS assay according to the manufacturer's directions (Promega). […]

[2] = test system: HCV replicon RNA, genotype 1b (strain Con1); experiment: HCV replicon assay qRT-PCR, genotype 1b (SGR 11-7 replicon cell line); type: cell-based; details: Hepatitis C virus, read-out: 1b EC50
Excerpt: as §1, §2

SMILES	EC50 ([1]; Genotype-1a replicon, HCV RNA by qRT-PCR normalized to GAPDH RNA)	EC50 ([2]; Genotype-1b replicon, HCV RNA by qRT-PCR normalized to GAPDH RNA)	EC50 [1]	EC50 [2]
C=C=C[C@@]1(O)C(O)[C@@H](CO)O[C@H]1n1ccc(=O)[nH]c1=O (stereo partly shown) [Example 1]	> 10 µM	> 10 µM	–	–
C=C=C[C@@]1(O)C(O)[C@@H](COP(=O)(N[C@@H](C)C(=O)OC)Oc2cccc3ccccc23)O[C@H]1n1ccc(=O)[nH]c1=O (stereo partly shown) [Example 2]	–	–	1 to 10 µM	1 to 10 µM
